# Results from PubChem BioAssay (NCI).
#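 Assay format: 96-well plates, 48-hour exposure. Abbreviation: GI50, concentration required for 50% inhibition of growth. The concentration for full growth arrest is given as TGI.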
# Tests used:
# Experiment in all cases: DTP human tumour cell line panel, 48 h
# [1] = test system: CAKI-1 renal
# [2] = test system: SR leukemia
# [3] = test system: OVCAR-4 ovarian
# [4] = test system: DU-145 prostate
# [5] = test system: SN12C renal
# [6] = test system: TK-10 renal
# [7] = test system: K-562 leukemia
# [8] = test system: HOP-92 NSCLC
# [9] = test system: HCT-116 colon
# [10] = test system: UACC-62 melanoma
# [11] = test system: NCI-H23 lung
# [12] = test system: MDA-MB-231 breast
# [13] = test system: SF-268 CNS
# [14] = test system: MDA-MB-435
# [15] = test system: IGROV1 ovarian
# [16] = test system: OVCAR-5 ovarian
# [17] = test system: SK-MEL-2 melanoma
# [18] = test system: MOLT-4 leukemia
# [19] = test system: UO-31 renal
# [20] = test system: SK-MEL-5 melanoma
# [21] = test system: HT29 colon
# [22] = test system: U251 CNS
# [23] = test system: MALME-3M melanoma
# [24] = test system: KM12 colon
# [25] = test system: HCT-15 colon
# [26] = test system: SNB-19 CNS
# [27] = test system: EKVX NSCLC
# [28] = test system: NCI/ADR-RES ovarian
# [29] = test system: SK-OV-3 ovarian
# [30] = test system: 786-0 renal
# [31] = test system: M14 melanoma
# [32] = test system: COLO 205 colon
# [33] = test system: OVCAR-3 ovarian
# [34] = test system: HL-60(TB) leukemia
# [35] = test system: NCI-H522 lung
# [36] = test system: CCRF-CEM leukemia
# [37] = test system: SNB-75 CNS
# [38] = test system: NCI-H226 lung
# [39] = test system: A549 NSCLC
# [40] = test system: BT-549 breast
# [41] = test system: MCF7 breast
# [42] = test system: RXF 393 renal
# [43] = test system: SK-MEL-28 melanoma
# [44] = test system: SF-295 CNS
# [45] = test system: SF-539 CNS
# [46] = test system: ACHN renal
# [47] = test system: T-47D breast
# [48] = test system: HCC-2998 colon
# [49] = test system: LOX IMVI melanoma
# [50] = test system: UACC-257 melanoma
# [51] = test system: RPMI-8226 leukemia
# [52] = test system: HOP-62 NSCLC
# [53] = test system: OVCAR-8 ovarian
# [54] = test system: PC-3 prostate
# [55] = test system: NCI-H460 lung
# [56] = test system: SW-620 colon
# [57] = test system: A498 renal
compound,measurement,setting,value
CC/C=C1/C(=O)C=C[C@@H]1C/C=C\CCCC(=O)OC,GI50,[1],2.7 µM
same,TGI,[1],7.45 µM
same,GI50,[2],563 nM
same,GI50,[3],5.24 µM
same,TGI,[3],18 µM
same,GI50,[4],4.56 µM
same,TGI,[4],16.4 µM
same,GI50,[5],3.08 µM
same,TGI,[5],8.58 µM
same,GI50,[6],4.07 µM
same,TGI,[6],14.5 µM
same,GI50,[7],0.767 µM
same,TGI,[7],> 100 µM
same,GI50,[8],12.1 µM
same,TGI,[8],25.1 µM
same,GI50,[9],0.447 µM
same,TGI,[9],2400 nM
same,GI50,[10],1.97 µM
same,TGI,[10],4.6 µM
same,GI50,[11],2.17 µM
same,TGI,[11],5.86 µM
same,GI50,[12],4.43 µM
same,TGI,[12],15.4 µM
same,GI50,[13],3.03 µM
same,TGI,[13],13.1 µM
same,GI50,[14],1.86 µM
same,TGI,[14],4.6 µM
same,GI50,[15],3.76 µM
same,TGI,[15],15.8 µM
same,GI50,[16],4.73 µM
same,TGI,[16],15.1 µM
same,GI50,[17],2.24 µM
same,TGI,[17],6.94 µM
same,GI50,[18],1.37 µM
same,TGI,[18],8.11 µM
same,GI50,[19],2.24 µM
same,TGI,[19],5.43 µM
same,GI50,[20],1.77 µM
same,TGI,[20],3.2 µM
same,GI50,[21],2.25 µM
same,TGI,[21],5.3 µM
same,GI50,[22],2.75 µM
same,TGI,[22],9.96 µM
same,GI50,[23],2.92 µM
same,TGI,[23],9.06 µM
same,GI50,[24],2.08 µM
same,TGI,[24],5.06 µM
same,GI50,[25],1.94 µM
same,TGI,[25],5.31 µM
same,GI50,[26],3.27 µM
same,TGI,[26],12.9 µM
same,GI50,[27],4.8 µM
same,TGI,[27],16.8 µM
same,GI50,[28],2.88 µM
same,TGI,[28],14.5 µM
same,GI50,[29],7.15 µM
same,TGI,[29],19.5 µM
same,GI50,[30],2.56 µM
same,TGI,[30],6.59 µM
same,GI50,[31],2.8 µM
same,TGI,[31],10.8 µM
same,GI50,[32],2.4 µM
same,TGI,[32],5.18 µM
same,GI50,[33],3.05 µM
same,TGI,[33],10.2 µM
same,GI50,[34],2170 nM
same,TGI,[34],6.94 µM
same,GI50,[35],1.56 µM
same,TGI,[35],3.57 µM
same,GI50,[36],0.519 µM
same,TGI,[36],10.6 µM
same,GI50,[37],12.9 µM
same,TGI,[37],33.2 µM
same,GI50,[38],13.7 µM
same,TGI,[38],31.2 µM
same,GI50,[39],13.3 µM
same,TGI,[39],29.5 µM
same,GI50,[40],2840 nM
same,TGI,[40],8.15 µM
same,GI50,[41],1.21 µM
same,TGI,[41],11 µM
same,GI50,[42],2.03 µM
same,TGI,[42],3.9 µM
same,GI50,[43],2520 nM
same,TGI,[43],6.27 µM
same,GI50,[44],2.6 µM
same,TGI,[44],6.76 µM
same,GI50,[45],3.66 µM
same,TGI,[45],13.7 µM
same,GI50,[46],2.27 µM
same,TGI,[46],4.57 µM
same,GI50,[47],3.79 µM
same,TGI,[47],16.7 µM
same,GI50,[48],2.13 µM
same,TGI,[48],3.83 µM
same,GI50,[49],0.505 µM
same,TGI,[49],1.91 µM
same,GI50,[50],2510 nM
same,TGI,[50],7.1 µM
same,GI50,[51],699 nM
same,TGI,[51],5.54 µM
same,GI50,[52],3.39 µM
same,TGI,[52],11.9 µM
same,GI50,[53],3.72 µM
same,TGI,[53],14.9 µM
same,GI50,[54],3.02 µM
same,TGI,[54],8.56 µM
C(#Cc1ccccc1C#Cc1cccs1)c1cccs1,GI50,[1],43.2 µM
same,TGI,[1],> 100 µM
same,GI50,[55],47.4 µM
same,TGI,[55],> 100 µM
same,GI50,[3],83.8 µM
same,TGI,[3],> 100 µM
same,GI50,[4],> 100 µM
same,TGI,[4],> 100 µM
same,GI50,[6],27.7 µM
same,TGI,[6],> 100 µM
same,GI50,[7],30.2 µM
same,TGI,[7],> 100 µM
same,GI50,[9],21.8 µM
same,TGI,[9],> 100000 nM
same,GI50,[10],43.4 µM
same,TGI,[10],> 100 µM
same,GI50,[11],51.6 µM
same,TGI,[11],> 100 µM
same,GI50,[12],23.4 µM
same,TGI,[12],82.1 µM
same,GI50,[13],> 100 µM
same,TGI,[13],> 100 µM
same,GI50,[14],37.2 µM
same,TGI,[14],> 100 µM
same,GI50,[15],> 100 µM
same,TGI,[15],> 100 µM
same,GI50,[16],25.6 µM
same,TGI,[16],83.2 µM
same,GI50,[17],41.7 µM
same,TGI,[17],> 100 µM
same,GI50,[18],25.8 µM
same,TGI,[18],80.1 µM
same,GI50,[19],35.8 µM
same,TGI,[19],> 100 µM
same,GI50,[20],23.6 µM
same,TGI,[20],> 100 µM
same,GI50,[21],23.5 µM
same,TGI,[21],> 100 µM
same,GI50,[22],66.8 µM
same,TGI,[22],> 100 µM
same,GI50,[56],42 µM
same,TGI,[56],> 100 µM
same,GI50,[23],56.9 µM
same,TGI,[23],> 100 µM
same,GI50,[24],29.5 µM
same,TGI,[24],> 100 µM
same,GI50,[25],24.6 µM
same,TGI,[25],> 100 µM
same,GI50,[26],> 100 µM
same,TGI,[26],> 100 µM
same,GI50,[27],73.1 µM
same,TGI,[27],> 100 µM
same,GI50,[28],25.2 µM
same,TGI,[28],> 100 µM
same,GI50,[29],33.9 µM
same,TGI,[29],> 100 µM
same,GI50,[30],24.7 µM
same,TGI,[30],> 100 µM
same,GI50,[31],32.9 µM
same,TGI,[31],> 100 µM
same,GI50,[32],36.4 µM
same,TGI,[32],> 100 µM
same,GI50,[33],57.1 µM
same,TGI,[33],> 100 µM
same,GI50,[35],34.2 µM
same,TGI,[35],> 100 µM
same,GI50,[36],31.9 µM
same,TGI,[36],> 100 µM
same,GI50,[37],> 100 µM
same,TGI,[37],> 100 µM
same,GI50,[38],39.2 µM
same,TGI,[38],> 100 µM
same,GI50,[39],89.9 µM
same,TGI,[39],> 100 µM
same,GI50,[40],> 100000 nM
same,TGI,[40],> 100 µM
same,GI50,[41],43.3 µM
same,TGI,[41],> 100 µM
same,GI50,[42],23.9 µM
same,TGI,[42],> 100 µM
same,GI50,[43],> 100000 nM
same,TGI,[43],> 100 µM
same,GI50,[44],30.6 µM
same,TGI,[44],> 100 µM
same,GI50,[57],22 µM
same,TGI,[57],81.4 µM
same,GI50,[45],71.5 µM
same,TGI,[45],> 100 µM
same,GI50,[46],78 µM
same,TGI,[46],> 100 µM
same,GI50,[47],30.2 µM
same,TGI,[47],> 100 µM
same,GI50,[48],24 µM
same,TGI,[48],65.2 µM
same,GI50,[49],23.7 µM
same,TGI,[49],53.8 µM
same,GI50,[50],> 100000 nM
same,TGI,[50],> 100 µM
same,GI50,[52],77.3 µM
same,TGI,[52],> 100 µM
same,GI50,[53],> 100 µM
same,TGI,[53],> 100 µM
same,GI50,[54],25.4 µM
same,TGI,[54],> 100 µM
